Measurements reported in patent publication US8329686B2, “Isatin analogues and uses therefor” (Washington University, priority 2006, dated 2012).

Assays:
[1] = Biodistribution of [^18F]WC-II-89 in normal and cycloheximide-treated rats; type: in vivo, Sprague-Dawley rats
Protocol: All animal studies were performed in accordance with the regulations of the Washington University Institutional Animal Care and Use Committee. Mature male Sprague Dawley rats from Charles River Laboratories were briefly anesthetized with 1-2% isoflurane in oxygen. […] Treated rats also received 5 mg/kg cycloheximide in saline via the tail vein three hours prior to radiotracer administration in order to induce caspase-mediated liver apoptosis. At set time-points following radiopharmaceutical injection, rats were again anesthetized and euthanized. Target and non-target organs were removed, weighed, and the radioactivity was counted using a Beckman Gamma 8000 well counter. Standard dilutions of the injected dose were counted along with the samples and uptake was calculated and reported as percent injected dose per gram (% ID/g).
This model, which uses the protein synthesis inhibitor, cycloheximide (CHX), was previously used in the evaluation of radiolabeled annexin V analogs (37). Tissue morphology and TUNEL staining studies have shown that cycloheximide induces apoptosis in rat liver in both a dose-dependent and time-dependent manner. Within 3 hours of treatment with 1.5, 3, or 10 mg of cycloheximide per kilogram of body weight, apoptosis was induced in rat liver (35, 36). Therefore, we chose 3 hours treatment of 5 mg/kg to induce the maximum apoptosis in rat liver, expecting a high level of caspase-3 activation.
In general, the initial uptake was higher for CHX treated rats than control rats. However, the difference between control and treated rats was reduced with time with the exception of the liver and spleen.

[2] = MicroPET imaging of [^18F]WC-II-89 in control and cycloheximide-treated rat; type: in vivo; settings: cycloheximide 3-hour pretreated rat versus control, 10-60 minutes post-i.v. injection
Protocol: MicroPET imaging studies were performed using a MicroPET Focus 220 and MicroPET Focus 120 scanner (Siemens/CTI, Knoxyille, Tenn.). A control and cycloheximide-treated (5 mg/kg, 3 hours pretreated) rat were anesthetized and a catheter inserted in the jugular vein. […] MicroPET images were reconstructed with OSEM-2D data analysis software package (Siemens/CTI, Knoxyille, Tenn.).
This was also confirmed by Western blot analysis of the rat livers following completion of the microPET imaging study.

- % I.D./gram ([1]; blood, control rats, 5 min.): 2.70 ± 0.21 % I.D./gram
- % I.D./gram ([1]; blood, control rats, 1 hr.): 0.11 ± 0.01 % I.D./gram
- % I.D./gram ([1]; blood, control rats, 2 hr.): 0.06 ± 0.01 % I.D./gram
- % I.D./gram ([1]; blood, cycloheximide-treated rats, 5 min.): 3.66 ± 0.40 % I.D./gram
- % I.D./gram ([1]; blood, cycloheximide-treated rats, 1 hr.): 0.16 ± 0.01 % I.D./gram
- % I.D./gram ([1]; blood, cycloheximide-treated rats, 2 hr.): 0.07 ± 0.00 % I.D./gram
- % I.D./gram ([1]; bone, control rats, 5 min.): 0.44 ± 0.04 % I.D./gram
- % I.D./gram ([1]; bone, control rats, 1 hr.): 0.13 ± 0.02 % I.D./gram
- % I.D./gram ([1]; bone, control rats, 2 hr.): 0.15 ± 0.06 % I.D./gram
- % I.D./gram ([1]; bone, cycloheximide-treated rats, 5 min.): 0.66 ± 0.06 % I.D./gram
- % I.D./gram ([1]; bone, cycloheximide-treated rats, 1 hr.): 0.12 ± 0.01 % I.D./gram
- % I.D./gram ([1]; bone, cycloheximide-treated rats, 2 hr.): 0.13 ± 0.03 % I.D./gram
- uptake of radioactivity in bone ([1]; bone, defluorination): very low uptake
- % I.D./gram ([1]; fat, control rats, 5 min.): 0.12 ± 0.02 % I.D./gram
- % I.D./gram ([1]; fat, control rats, 1 hr.): 0.15 ± 0.02 % I.D./gram
- % I.D./gram ([1]; fat, control rats, 2 hr.): 0.07 ± 0.01 % I.D./gram
- % I.D./gram ([1]; fat, cycloheximide-treated rats, 5 min.): 0.09 ± 0.03 % I.D./gram
- % I.D./gram ([1]; fat, cycloheximide-treated rats, 1 hr.): 0.14 ± 0.01 % I.D./gram
- % I.D./gram ([1]; fat, cycloheximide-treated rats, 2 hr.): 0.09 ± 0.01 % I.D./gram
- % I.D./gram ([1]; kidney, control rats, 5 min.): 1.25 ± 0.14 % I.D./gram
- % I.D./gram ([1]; kidney, control rats, 1 hr.): 0.53 ± 0.07 % I.D./gram
- % I.D./gram ([1]; kidney, control rats, 2 hr.): 0.18 ± 0.04 % I.D./gram
- % I.D./gram ([1]; kidney, cycloheximide-treated rats, 5 min.): 1.18 ± 0.08 % I.D./gram
- % I.D./gram ([1]; kidney, cycloheximide-treated rats, 1 hr.): 0.55 ± 0.05 % I.D./gram
- % I.D./gram ([1]; kidney, cycloheximide-treated rats, 2 hr.): 0.23 ± 0.05 % I.D./gram
- uptake in liver, treated rats higher than control ([1]; liver, 1-hour post-i.v. injection, cycloheximide-treated vs control): 94%
- % I.D./gram ([1]; liver, control rats, 5 min.): 3.13 ± 0.26 % I.D./gram
- % I.D./gram ([1]; liver, control rats, 1 hr.): 0.38 ± 0.06 % I.D./gram
- % I.D./gram ([1]; liver, control rats, 2 hr.): 0.16 ± 0.02 % I.D./gram
- % I.D./gram ([1]; liver, cycloheximide-treated rats, 5 min.): 4.02 ± 0.45 % I.D./gram
- % I.D./gram ([1]; liver, cycloheximide-treated rats, 1 hr.): 0.73 ± 0.12 % I.D./gram
- % I.D./gram ([1]; liver, cycloheximide-treated rats, 2 hr.): 0.22 ± 0.03 % I.D./gram
- % I.D./gram ([1]; lung, control rats, 5 min.): 1.42 ± 0.34 % I.D./gram
- % I.D./gram ([1]; lung, control rats, 1 hr.): 0.18 ± 0.03 % I.D./gram
- % I.D./gram ([1]; lung, control rats, 2 hr.): 0.08 ± 0.01 % I.D./gram
- % I.D./gram ([1]; lung, cycloheximide-treated rats, 5 min.): 2.08 ± 0.23 % I.D./gram
- % I.D./gram ([1]; lung, cycloheximide-treated rats, 1 hr.): 0.23 ± 0.03 % I.D./gram
- % I.D./gram ([1]; lung, cycloheximide-treated rats, 2 hr.): 0.11 ± 0.02 % I.D./gram
- % I.D./gram ([1]; muscle, control rats, 5 min.): 0.14 ± 0.01 % I.D./gram
- % I.D./gram ([1]; muscle, control rats, 1 hr.): 0.08 ± 0.01 % I.D./gram
- % I.D./gram ([1]; muscle, control rats, 2 hr.): 0.03 ± 0.00 % I.D./gram
- % I.D./gram ([1]; muscle, cycloheximide-treated rats, 5 min.): 0.09 ± 0.00 % I.D./gram
- % I.D./gram ([1]; muscle, cycloheximide-treated rats, 1 hr.): 0.10 ± 0.02 % I.D./gram
- % I.D./gram ([1]; muscle, cycloheximide-treated rats, 2 hr.): 0.06 ± 0.00 % I.D./gram
- uptake in spleen, treated rats higher than control ([1]; spleen, 1-hour post-i.v. injection, cycloheximide-treated vs control): 184%
- % I.D./gram ([1]; spleen, control rats, 5 min.): 1.14 ± 0.08 % I.D./gram
- % I.D./gram ([1]; spleen, control rats, 1 hr.): 0.15 ± 0.05 % I.D./gram
- % I.D./gram ([1]; spleen, control rats, 2 hr.): 0.06 ± 0.01 % I.D./gram
- % I.D./gram ([1]; spleen, cycloheximide-treated rats, 5 min.): 2.24 ± 0.41 % I.D./gram
- % I.D./gram ([1]; spleen, cycloheximide-treated rats, 1 hr.): 0.43 ± 0.05 % I.D./gram
- % I.D./gram ([1]; spleen, cycloheximide-treated rats, 2 hr.): 0.11 ± 0.03 % I.D./gram
- % I.D./gram ([1]; thymus, control rats, 5 min.): 0.23 ± 0.07 % I.D./gram
- % I.D./gram ([1]; thymus, control rats, 1 hr.): 0.09 ± 0.01 % I.D./gram
- % I.D./gram ([1]; thymus, control rats, 2 hr.): 0.04 ± 0.00 % I.D./gram
- % I.D./gram ([1]; thymus, cycloheximide-treated rats, 5 min.): 0.38 ± 0.10 % I.D./gram
- % I.D./gram ([1]; thymus, cycloheximide-treated rats, 1 hr.): 0.12 ± 0.02 % I.D./gram
- % I.D./gram ([1]; thymus, cycloheximide-treated rats, 2 hr.): 0.06 ± 0.01 % I.D./gram
SMILES: O=C1C(=O)N(Cc2ccc(OCC[18F])cc2)c2ccc(S(=O)(=O)N3CCC[C@H]3COc3ccccc3)cc21 [[^18F]WC-II-89]
- microPET uptake in the liver [2]: higher uptake
